Assay results as given in patent US20200383627A1, “TECHNIQUES FOR TREATMENT OF EPILEPTIC DISORDERS USING ELECTROPHYSIOLOGICAL BIOMARKERS AND RELATED SYSTEMS AND METHODS” (Children's Medical Center Corporation, priority 2017, published 2020).

Assays:
Format in all cases: in vivo, human
[1] = tested on: patients with infantile spasms (IS); test: Clinical outcome assessment of ACTH treatment (spasms frequency, response, relapse); design: Sf diff (spasms frequency, baseline minus follow-up) / Seizure frequency, Follow-up / Spasms frequency Follow-up / Spasms frequency Change: unit not given here; conditions: for Spasms frequency Change / Spasms frequency Follow-up: median
From the text: One-hundred-fifty (83 males; 55%) out of 170 patients were included for the clinical outcome assessment study. Mean age of spasms onset was 6.6 (±3.4) months. The mean time to treatment and follow-up duration were 39 (±50) and 38 (±49) days, respectively. Fifty-one out of 150 (34%) of patients had abnormal MRI findings.
The etiology of IS was: genetic/inborn metabolic in 28 (19%), unknown in 71 (47%), and structural brain abnormality (acquired and congenital) in 51 (34%). […] During the ACTH treatment, 86 (57%) patients were receiving concomitant ASMs (Table 1).
One hundred-one of 150 patients (67%) were deemed responders to the ACTH treatment at follow-up assessment, with IS cessation and resolution of hypsarrhythmia (Table 2). Thirty out of 101 initial responders (30%) experienced a relapse. Clinical parameters such as age of onset, sex, MRI finding, previous seizure history, previous and concomitant AED treatment, etiology, and baseline EEG were not prognostic factors for response and relapse (Tables 2-3).
(§1) Different criteria have been utilized to determine response to treatment in previous studies. Our EEG responder criteria are consistent with the criteria used in several previous studies, comprising IS freedom for at least seven consecutive days during treatment, and disappearance of hypsarrhythmia on follow-up EEG assessment. Although the presence of hypsarrhythmia has been considered crucial for the diagnosis and evaluating treatment response in IS, hypsarrhythmia may not be present at diagnosis in 25% of cases. Lack of hypsarrhythmia may be seen in patients with prior AED treatment, the early phase of IS, and late onset of spasms. […] Our findings highlight the importance of new quantitive biomarkers for evaluating EEGs in IS.

[2] = tested on: patients with infantile spasms (IS); test: Quantitative EEG analysis (manual/automatic spike count, delta power) before and after ACTH treatment; conditions: for Delta Power Change / Spike Count (Automatic) Change / Spike Count (Manual) Change / Delta Power Follow-up / Spike Count (Manual) Follow-up / Spike Count (Automatic) Follow-up: median
Experimental: In act 602, EEG data of a subject is obtained in any manner described above in relation to act 102 of FIG. 1. In act 604, a power spectral density (PSD) of at least part of the EEG data is calculated. The PSD, as discussed above, provides information on the amount of power present in various frequency components of the EEG signal(s). As one non-limiting example, a Fast Fourier Transform (FFT) of one or more EEG signals may be performed to determine the PSD of the EEG signals. Suitable parameters of the FFT operation may include a time constant of 0.16 seconds, a sampling rate of 64 Hz, and/or an FFT window duration of 2 seconds. In some embodiments, a high-pass, low-pass and/or band-pass filter may be applied to EEG signals prior to generation of a PSD. For instance, frequencies above 35 Hz may be filtered from the EEG signals and a PSD generated based on the resulting filtered EEG signals. It will be appreciated that, because an FFT operates on a window of time of the EEG signal(s), a number of PSDs may be calculated for a number of (overlapping or non-overlapping) windows of time of the EEG signal(s). As a result, act 604 may be performed numerous times.
In act 606, a delta power is calculated based on a PSD calculated in act 604. In cases where a number of PSDs are calculated in act 604, a number of delta powers may be calculated in act 606 by calculating a delta power for each PSD. In some cases, the delta power may vary over time within the EEG signals obtained from a subject in a single session. In these cases, it may be preferable to obtain a single average value of the delta power from the EEG signals by, for instance, calculating the mean of the calculated delta power. Delta power may be calculated by determining the total spectral power present within the calculated PSD data between the frequency bounds of the delta band (e.g., 0.5 Hz to 4 Hz). In some cases, the delta power may be calculated by determining a total area under the PSD curve within the delta band's frequency range.
In act 702, EEG data of a subject is obtained in any manner described above in relation to act 102 of FIG. 1. In act 704, a plurality of wavelet coefficients may be calculated based on the EEG data obtained in act 702. As discussed above, wavelet analysis may represent a particularly desirable approach to identifying spikes due to the natural ability of wavelets to identify rapid changes in a signal's amplitude. Act 704 may comprise any suitable approach to determining wavelet coefficients, including a continuous wavelet transform (CWT), a discrete wavelet transform (DWT) and/or a stationary wavelet transform (SWT). In some embodiments, an SWT analysis may be preferable because the results are invariant with respect to time shifts, although a greater redundancy in data may be produced compared with a DWT analysis, for example. Any suitable wavelet family may be utilized during act 704, including haar, daubechies, biorthogonal, coiflets and/or symlets (e.g., symlet4).
In act 706, spikes are identified from the wavelet coefficients determined in act 704. Act 706 may comprise identifying a number of instances in which the wavelet coefficients have values above or below a suitable threshold that represents an incidence of a spike, to produce a spike count. A spike frequency may be determined by dividing the spike count by the total amount of time represented by the EEG data.
Fifty out of these 150 patients had original EEG data available for analysis met criteria for the comparison of baseline and follow-up electrophysiological evaluation.
The magnitude of changes in the EEG parameters (spike quantification and slow wave activity) were more prominent in patients responders as compared to non-responders (MSC diff: 169 vs.44 spikes; p<0.001, ASCA diff: 157 vs.55 spikes; p<0.001, DP diff: 11.3 vs.2.3, Sf diff: 158 vs. 60; p<0.05 respectively in responders vs. non-responders, Table 5).

[3] = tested on: patients with infantile spasms (IS); test: EEG pattern (hypsarrhythmia) at follow-up assessment after ACTH treatment
From the text: The presence of hypsarrhythmia is often used as a diagnostic criteria for IS, and is characterized by an abnormal interictal pattern consisting of high amplitude and irregular waves and spikes in a background of chaotic and disorganized activity within the EEG signals.
At baseline, 54 (36%) had hypsarrhythmia pattern, 75 (50%) had modified hypsarrhythmia pattern, and 21 (14%) had other abnormalities (without hypsarrhythmia) (Table 1). At the follow-up assessment, 58 patients with good response had abnormal EEG findings (abnormalities other than hypsarrhythmia, such as multifocal spikes or sharp waves, abnormal slow wave and fast activity). In terms of the EEG pattern, there was no difference between poor- and good responders, and between the patients who relapsed and the sustained responders (Tables 2-3).
as §1

[4] = Patients without Relapse (n: 20)
[5] = percentage of 101 initial responders
[6] = patients with sustained response

Adrenocorticotropic hormone (SYSMEHFRWGKPVGKKRRPVKVYPNGAEDESAEAFPLEF; Corticotropin; UniProt P01189 138-176, looked up) [ACTH, polypeptide tropic hormone produced by and secreted by the anterior pituitary gland; used to treat infantile spasms]
relapse rate among initial responders ([1]; 30 of 101 initial responders): 30% | response rate (responders to the ACTH treatment at follow-up: IS cessation and resolution of hypsarrhythmia) ([1]; 101 of 150 patients, follow-up after day 14 of treatment): 67% | Spasms frequency follow up/week ([1]; Good Response (n): 101, baseline 318): 80 /week | Spasms frequency Change ([1]; Good responder (n: 31)): 84 | Spasms frequency Follow-up ([1]; Good responder (n: 31), baseline 122): 0 | Spasms frequency Change ([1]; Patients with Relapse (n: 11)): 11 | Spasms frequency Follow-up ([1]; Patients with Relapse (n: 11), baseline 140): 42 | Spasms frequency Change [1, 4]: 117 | Spasms frequency Follow-up ([1]; Patients without Relapse (n: 20), baseline 117): 0 | Spasms frequency follow up/week ([1]; Poor Response (n): 49, baseline 242): 233 /week | Spasms frequency Change ([1]; Poor responder (n: 19)): 43 | Spasms frequency Follow-up ([1]; Poor responder (n: 19), baseline 105): 70 | Spasms frequency follow up/week ([1]; Relapse (n): 30, baseline 311): 270 /week | Spasms frequency follow up/week ([1]; Without Relapse (n): 71, baseline 322): 0 /week | Seizure frequency, Follow-up ([1]; n: 50, mean, baseline 192): 70 | Clinical response No, number of patients ([1]; n: 150): 49 | Clinical response Yes, number of patients ([1]; n: 150, IS cessation and resolution of hypsarrhythmia at follow-up): 101 | spasm frequency after ACTH treatment (median weekly) ([1]; n: 150, before treatment 294, p<0.001): 130 | Follow up spasms frequency ([1]; n: 150, mean (SD), baseline 294/week): 130 /week | Sf diff (spasms frequency, baseline minus follow-up) ([1]; non-responders): 60 | Relapse (if good response exist) No, number of patients ([1]; of 101 initial responders): 71 | Relapse (if good response exist) Yes, number of patients ([1]; of 101 initial responders): 30 | Relapse (if good response exist) No, share of patients [1, 5]: (70.3) | Relapse (if good response exist) Yes, share of patients [1, 5]: (29.7) | Clinical response No, share of patients ([1]; percentage of n: 150): (32.7) | Clinical response Yes, share of patients ([1]; percentage of n: 150): (67.3) | Sf diff (spasms frequency, baseline minus follow-up) ([1]; responders): 158 | Delta Power Change ([2]; Good responder (n: 31)): 10.2 | Spike Count (Automatic) Change ([2]; Good responder (n: 31)): 144 | Spike Count (Manual) Change ([2]; Good responder (n: 31)): 153 | Delta Power Follow-up ([2]; Good responder (n: 31), baseline 24.7): 13.4 | Spike Count (Manual) Follow-up ([2]; Good responder (n: 31), baseline 232): 48 | Spike Count (Automatic) Follow-up ([2]; Good responder (n: 31), baseline 244): 53 | Delta Power Change ([2]; Patients with Relapse (n: 11)): 6 | Spike Count (Automatic) Change ([2]; Patients with Relapse (n: 11)): 50 | Spike Count (Manual) Change ([2]; Patients with Relapse (n: 11)): 51 | Delta Power Follow-up ([2]; Patients with Relapse (n: 11), baseline 23.6): 17.1 | Spike Count (Manual) Follow-up ([2]; Patients with Relapse (n: 11), baseline 187): 86 | Spike Count (Automatic) Follow-up ([2]; Patients with Relapse (n: 11), baseline 197): 117 | Delta Power Change [2, 4]: 14.6 | Spike Count (Automatic) Change [2, 4]: 176 | Spike Count (Manual) Change [2, 4]: 212 | Delta Power Follow-up ([2]; Patients without Relapse (n: 20), baseline 26.4): 10.5 | Spike Count (Manual) Follow-up ([2]; Patients without Relapse (n: 20), baseline 247): 10 | Spike Count (Automatic) Follow-up ([2]; Patients without Relapse (n: 20), baseline 257): 28.5 | Delta Power Change ([2]; Poor responder (n: 19)): 3.1 | Spike Count (Automatic) Change ([2]; Poor responder (n: 19)): 47 | Spike Count (Manual) Change ([2]; Poor responder (n: 19)): 52 | Delta Power Follow-up ([2]; Poor responder (n: 19), baseline 21.7): 19.5 | Spike Count (Automatic) Follow-up ([2]; Poor responder (n: 19), baseline 236): 152 | Spike Count (Manual) Follow-up ([2]; Poor responder (n: 19), baseline 242): 168 | DP (delta power) at follow-up EEG ([2]; n: 50, baseline 25.1, p<0.001): 17.2 μV | Delta Power, Follow-up EEG ([2]; n: 50, mean, baseline 25.1): 17.2 | Spike Count Automatic, Follow-up EEG ([2]; n: 50, mean, baseline 232): 113 | Spike Count Manual, Follow-up EEG ([2]; n: 50, mean, baseline 234): 112 | ASCA diff (automatic spike count, baseline minus follow-up) ([2]; patients who relapsed): 75 | DP diff (delta power, baseline minus follow-up) ([2]; patients who relapsed): 5.4 | MSC diff (manual spike count, baseline minus follow-up) ([2]; patients who relapsed): 76 | ASCA diff (automatic spike count, baseline minus follow-up) [2, 6]: 202 | DP diff (delta power, baseline minus follow-up) [2, 6]: 14.6 | MSC diff (manual spike count, baseline minus follow-up) [2, 6]: 220 | ASCA diff (automatic spike count, baseline minus follow-up) ([2]; responders): 157 spikes | DP diff (delta power, baseline minus follow-up) ([2]; responders): 11.3 | MSC diff (manual spike count, baseline minus follow-up) ([2]; responders): 169 spikes | Follow-up EEG features: Normal EEG, number of patients ([3]; n: 150): 44 | Follow-up EEG features: Without Hypsarrhythmia, number of patients ([3]; n: 150, baseline 21): 94 | Follow-up EEG features: Hypsarrhythmia, number of patients ([3]; n: 150, baseline 54): 6 | Follow-up EEG features: Modified Hypsarrhythmia, number of patients ([3]; n: 150, baseline 75): 6 | Follow-up EEG features: Normal EEG, share of patients ([3]; percentage of n: 150): (29.3) | Follow-up EEG features: Without Hypsarrhythmia, share of patients ([3]; percentage of n: 150, baseline (14)): (62.7) | Follow-up EEG features: Hypsarrhythmia, share of patients ([3]; percentage of n: 150, baseline (36)): (4) | Follow-up EEG features: Modified Hypsarrhythmia, share of patients ([3]; percentage of n: 150, baseline (50)): (4)
